Assay: Human HepG2 cell viability assay in 384 well format
Assay type: toxicity, cell-based
Parameters: dose 125 nL, time 70.5 hour; concentration not given beside the values
Conditions: HepG2 cells, read-out: Inhibition

Row | Structure (SMILES) | cytotoxicity at 70.5 h
1 | CC(C)NC(=O)[C@H]1C[C@@H]2[C@@H](C1)OCCN2Cc1cccnc1 | -2.77%
2 | O=C1NCCO[C@H]2CN(C(=O)c3cccs3)CC[C@@H]12 | 20.1%
3 | Cc1ccc2c(c1)[C@@H](CC(=O)N1CCOCC1)CCO2 | 0.54%
4 | O=C(NCc1ccccn1)c1cnc(C2CCCN2)cn1 (configuration not stated) | -4.69%
5 | CN1CCCc2ccc(S(=O)(=O)NC(=O)C3CC=CC3)cc21 | -3.77%
6 | CC(C)CNC(=O)c1cc2c(s1)CCN2Cc1cccnc1 | -1.22%
7 | O=C([C@@H]1COC[C@H]2CN(CC3CCCC3)C[C@H]21)N1CCOCC1 | -7.37%
8 | Cc1nc(CN2C(=O)C[C@@H]3[C@@H]2CCN3Cc2cnn(C)c2)cs1 | -15.4%
9 | NC(=O)c1cc(C2CCCN(C(=O)CCc3ccccn3)C2)n[nH]1 (configuration not stated) | -3.73%
10 | CN1CCN(C2CCN(Cc3noc(C4CC4)n3)CC2)C1=O | -1.19%
11 | Cc1noc(C)c1-c1cc(CCC2CN(CCC(N)=O)CCO2)ncn1 (configuration not stated) | -2.2%
12 | COc1ccc(CNC(=O)c2ccc(Cl)cc2F)cc1C(=O)O | -4.39%
13 | Cc1ccc(S(=O)(=O)Nc2ccc(=O)n(C)c2)c(Br)c1 | 21.8%
14 | Cc1ccc(NC(=O)c2n[nH]c(-n3cnnc3)n2)cc1 | -8.15%
15 | COCC(=O)Nc1ccccc1Sc1c(C)n[nH]c1C | 25.1%
16 | COCc1cnc2n1CCN(C(=O)c1cc3cc(Cl)ccc3o1)C2C (configuration not stated) | 18.3%
17 | COc1ccc(Cl)cc1C(=O)N1CCCC(n2nc(C)nc2C)C1 (configuration not stated) | 27.7%
18 | COc1ccccc1C(=O)N1CCN(C(=O)CCn2ccnc2)CC1 | -5.01%
19 | O=C1N[C@H]2OCCC[C@H]2[C@H](c2ccc(C(=O)O)cc2)N1 | 12.6%
20 | Cc1cc(CC(C)Nc2nc(C3CCCC3)nc3c2cnn3C)[nH]n1 (configuration not stated) | -13%
21 | CC(=O)N1CCCC2(CN(Cc3ccc(F)cc3)CCO2)C1 (configuration not stated) | 2.34%
22 | COc1ccnc(N2CCN(C(=O)NCc3ccc(C)s3)CC2)n1 | 1.2%
23 | CC(C)=CCN1CCN(C(=O)c2cc(C)n[nH]2)[C@H]2CS(=O)(=O)C[C@H]21 | 0.726%

Row | Structure (SMILES) | cytotoxicity at 70.5 h
24 | CCCC1(NC(=O)C(c2ccccc2C)N(C)C)CC1 (configuration not stated) | -5.65%
25 | NC(CC1CCCC1)c1ccccc1 (configuration not stated) | 0.203%
26 | O=C(NCC(=O)N1CCCC1)c1nn(-c2ccccc2F)cc1O | 3.63%
27 | CC/C=C(/C)C(=O)NCc1ccnc(OC2CCOCC2)c1 | -9.32%
28 | CN(Cc1ccccc1)C1(C(=O)NC(CO)CO)Cc2ccccc2C1 | 1.88%
29 | Cc1cc(CN2C[C@H]3CC[C@@H]2CN(C2Cc4ccccc4C2)C3)on1 | 3.93%
30 | CC1COCCN1Cc1nc(Cc2ccccc2)no1 (configuration not stated) | -8.66%
31 | COc1cc(NC(=O)NCc2ccccn2)cc(OC)c1 | 8.5%
32 | CCOc1ncccc1CNC(=O)NCCNC(=O)c1ccco1 | -4.58%
33 | CCOC(=O)C1CCN(C(=O)CN2CCCC2c2ccccc2C)CC1 (configuration not stated) | -10.7%
34 | O=C(O)CSc1nnc(-c2ccco2)n1-c1ccccc1C(F)(F)F | -4.07%
35 | CCc1nnc2n1CCN(Cc1csc(-c3ccccc3)n1)C2 | -12.9%
36 | O=C(COCC(F)(F)C(F)F)N1CCC2(CCCN(CCO)C2=O)C1 (configuration not stated) | -2.98%
37 | Cc1ccnc(NC(=O)c2ccc(F)c(S(=O)(=O)NC3CC3)c2)c1 | -7.61%
38 | c1ccc2sc(CN3CCCC3c3noc(C4CC4)n3)nc2c1 (configuration not stated) | 4.52%
39 | CN[C@@H](C)C(=O)N(Cc1cccc(C)c1)Cc1ccccc1OC | 14.5%
40 | CN(Cc1nc2c(cnn2C)c(=O)[nH]1)Cc1ccc(F)cc1F | -10.6%
41 | Cc1nc(O)cc(C2CCN(C(=O)c3ccsc3)CC2)n1 | -5.48%
42 | Cc1ccccc1C(=O)NC(C)c1cnn(C)c1 (configuration not stated) | 27.8%
43 | COc1ccc2c(C(=O)N(C)C)cc(-c3cnc(N)nc3)nc2c1 | -3.44%
44 | c1ccc2c(N3CCCCC3)cnnc2c1 | -6.45%
45 | CCn1nc(C)c2ncnc(N(C)C)c21 | -3.05%
46 | COCCCN(Cc1ccccn1)S(=O)(=O)N(C)C | 26.3%

Row | Structure (SMILES) | cytotoxicity at 70.5 h
47 | CS(=O)(=O)c1ccc(CNC(=O)N2CCC(C(N)=O)CC2)cc1 | -2.35%
48 | CN(C)C(=O)CNC(=O)Nc1cccc(Cl)c1SC(F)F | -4.52%
49 | Cc1nc2n(n1)CC(NCc1c(Cl)ccc3cccnc13)CC2 (configuration not stated) | -9.95%
50 | COCCOCCCC(=O)N1CCC(Cc2ccccc2OC)CC1 | -10.9%
51 | CNC(=O)CN1CC[C@H]2CN(C(=O)c3ccccc3F)C[C@H]2C1 | -2.12%
52 | Cc1nc(CN2C[C@@H]3CN(C(=O)C4(C#N)CC4)C[C@@H]3C2=O)cs1 | -2.26%
53 | CC(C)C(=O)N1CCN(C(=O)c2cscn2)[C@H]2CS(=O)(=O)C[C@H]21 | -2.25%
54 | Cc1cccc(CN2C[C@@H]3COC[C@]3(CNC(=O)c3cccn3C)C2)n1 | 19.6%
55 | CCN1CCc2[nH]cnc2C12CCN(Cc1ccc3nsnc3c1)CC2 | -5.41%
56 | COc1cc2cc(C(=O)NCCC(=O)O)n(C)c2c(OC)c1OC | -4.76%
57 | CNc1nc(C(=O)N2CCn3nc(C(=O)OC)cc3C2)cs1 | -4.4%
58 | Cc1cc(C2CCCCN2C(=O)CN2CC3(CCNCC3)OC2=O)no1 (configuration not stated) | -6.52%
59 | O=S(=O)(c1ccc(F)cc1Cl)N1CCCC1c1ccncc1 (configuration not stated) | -6.79%
60 | CN1CC2(CCN(CCOCCO)CC2)CC(c2ccccc2)C1=O (configuration not stated) | 29.9%
61 | COCCN(c1cc(C)nc2nc(C(F)(F)F)nn12)C1CCCC1 | 12.8%
62 | CC(C)(C)c1nc(CN2CCCC2c2nnc3ccccn23)no1 (configuration not stated) | -22.6%
63 | CCc1nc(CN2CCCC(N(C)Cc3cnc(C)s3)C2)no1 (configuration not stated) | -2%
64 | C[C@@H]1CN(C(=O)c2c[nH]c(=O)c(Cl)c2)CC[C@@]1(O)C1CCOCC1 | -1.04%
65 | O=c1[nH]cnc2c1CCN(S(=O)(=O)c1cccc(OC(F)(F)F)c1)C2 | -5.76%
66 | Cc1ccc(N2CCC3(CCN(C(=O)N(C)C)CC3)CC2)nn1 | 11.4%
67 | CN(CCc1cccs1)C(=O)Nc1ccc2c(c1)C(=O)N(C)CC2 | -7.01%
68 | CC(C)OCCC(=O)N1CCN(CC(O)c2ccccc2)CC1 (configuration not stated) | -1.62%
69 | Cc1cc2n(n1)CC(CNCc1ccc(OCC3CC3)nc1)CN2 (configuration not stated) | 7.09%

Row | Structure (SMILES) | cytotoxicity at 70.5 h
70 | O=C(NCC1(CO)CC1)c1ccccc1C(F)(F)F | -9.3%
71 | C=Cc1ccc(CSc2nc3c(c(=O)[nH]2)CN(CCC)CC3)cc1 | 8.58%
72 | COc1cc(C2CC(=O)Nc3c2c(=O)[nH]n3C2CCCCC2)ccc1O (configuration not stated) | -12.4%
73 | CCOCCN1CCn2c(C)nnc2C1 | 16.1%
74 | Cc1nc(CN2C[C@@H]3CN(C(=O)c4cccn4C)C[C@@H]3C2=O)cs1 | -3.56%
75 | CNc1cncc(C2CCCN2Cc2cccc(C)n2)n1 (configuration not stated) | -6.12%
76 | CS(=O)(=O)c1ccc(CN2CCCCC2c2cccc(F)c2)cc1 (configuration not stated) | -9.66%
77 | CN1Cc2c(C(=O)Nc3cccnc3)ncn2-c2ccccc2S1(=O)=O | -8.44%
78 | COCC1CCN(C(=O)c2cc(-c3ccco3)nc3c(Cl)cccc23)C1 (configuration not stated) | -20.7%
79 | Cc1ccc(S(=O)(=O)N2CCC(c3n[nH]cc3C(=O)N(C)C)CC2)cc1 | 8.18%
80 | O=C(CC1CC1)N1C[C@@H]2CCN(c3cnccn3)C[C@@H]2C1 | 4.03%
81 | Cc1cc(CN(C)C(=O)c2ccc(Cl)c(N3CCCC3=O)c2)no1 | 28.1%
82 | Cc1cnc(N2CCC3(CC2)CCN(c2cncnc2)C3=O)nc1 | 8.5%
83 | CN(C)c1cc(CNC(=O)c2cnccn2)ccn1 | -8.01%
84 | Cc1ncsc1C(=O)N1CCN(CCC(C)C)CC1 | -6.29%
85 | CCCn1cnnc1CN(C)C(=O)C1CCCN(C2CCN(C)CC2)C1 (configuration not stated) | -9.33%
86 | COc1cccc(C(O)CNC(=O)CC2CCCCC2)c1 (configuration not stated) | -8.34%
87 | COCc1nc(CN2CCOC(CN(C)c3cccnn3)C2)cs1 (configuration not stated) | 2.04%
88 | COc1cc(F)cc(CNC(=O)Nc2ccn(CC(F)F)n2)c1 | -2.34%
89 | CN(C)C1(CNC(=O)C2CCCN2Cc2ccc(F)cc2)CCOCC1 (configuration not stated) | 6.73%
90 | COc1c(CNCc2ccc(C(=O)NC3CC3)cc2)c(C)nn1C | -3.83%
91 | COc1cccc(C2CC(=O)Nc3c2cnn3C(C)(C)C)c1 (configuration not stated) | -6.1%
92 | CN(Cc1ccco1)C(=O)CN1CCCC(Cn2cncn2)C1 (configuration not stated) | -8.21%

Row | Structure (SMILES) | cytotoxicity at 70.5 h
93 | O=C(c1ccoc1)N1CCC(O)(C(F)(F)F)CC1 | -12.1%
94 | Cc1cccc(OCCNC(=O)Cn2ccc(C)cc2=O)c1 | -8.95%
95 | Cc1cc(C2CCCN2C(=O)NCc2cccnc2)on1 (configuration not stated) | -7.94%
96 | CC(=O)NCC1CCC2(CCN(c3ncc(C)cn3)CC2)O1 (configuration not stated) | -3.04%
97 | Cc1nn(C)c(N(C)C)c1CNCCNS(C)(=O)=O | -7.58%
98 | Cc1cc(C(=O)N2CCc3ncnc(N4CCSCC4)c3CC2)[nH]n1 | -5.82%
99 | COC(=O)c1cc(C)nc(N2CCN(Cc3ccn(C(C)C)c3)CC2)n1 | -18.7%
100 | COc1ccc(CC(=O)N2CCCCC2Cn2cccn2)cc1 (configuration not stated) | -3.73%
101 | Cc1cc(C)n(C2CN(CC(O)c3ccc(S(C)(=O)=O)cc3)C2)n1 (configuration not stated) | 0.799%
102 | COCCC(=O)N1CCC(c2nnc(-c3ccsc3)o2)CC1 | -6.73%
103 | CC(=O)N(C)CC(=O)NC1(c2ccc(Cl)c(Cl)c2)CC1 | -10%
104 | CN(CCC(N)=O)Cc1cc(Br)cs1 | -19.7%
105 | CCOc1ccc(C2CC(=O)Nc3c2c(=O)nc2sccn32)cc1 (configuration not stated) | -31.7%
106 | Cc1cccnc1CN1CCC2(CC(Nc3ccncn3)C2)C1 (configuration not stated) | 1.25%
107 | CCn1cncc1-c1nc2c([nH]1)CC(C)(C)CNC2=O | -3.18%
108 | CN(C)c1ccnc(-c2ccnc3c2ccn3C)n1 | -5.41%
109 | Cc1nc(CNCC(O)COc2ccc3c(c2)OCO3)cs1 (configuration not stated) | 1.9%
110 | CCS(=O)(=O)CCSc1ccc(Br)cc1 | -6.15%
111 | Cc1ccccc1CNC(=O)Cc1c(C)nc2cc(=O)[nH]n2c1C | -2.94%
112 | COc1cccc(S(=O)(=O)NC(=O)COC2CCCCC2)c1 | 0.508%
